From patent US20050196806A1, “Prostate specific antigen oligoepitope peptide” (The Government of the USA, as represented by the Secretary, …, priority 1996, published 2005)

Tested on: PBMC from normal healthy donors expressing the HLA A2 class 1 allele
Assay: Establishment of human T cell lines by pulsing PBMC with peptide and IL-2
Format: cell-based
Conditions: donors with T cell line / donors tested; PBMC pulsed with peptide and IL-2
Text: Cytotoxic T-cells specific for PSA can be established from peripheral blood mononuclear cells (PBMC) obtained from a host immunized as discussed above. For example, PBMC can be separated by using Lymphocyte Separation Medium gradient (Organon Teknika, Durham, N.C., USA) as previously described [Boyum et al, Scand J. Clin Lab Invest 21:77-80 (1968)]. Washed PBMC are resuspended in a complete medium, for example, RPMI 1640 (GIBCO) supplemented with 10% pool human AB serum (Pel-Freeze Clinical System, Brown Dear, Wisc., USA), 2 mM glutamine, 100 U/ml penicillin and 100 μg/ml of streptomycin (GIBCO). PBMC at a concentration of about 2×10^5 cells in complete medium in a volume of, for example 100 μl are added into each well of a 96-well flat-bottom assay plate (Costar, Cambridge, Mass., USA). The antigen or peptides are added into the cultures in a final concentration of about 50 μg/ml and incubated at 37° C. in a humidified atmosphere containing 5% CO2 for 5 days. After removal of peptide containing media, the cultures are provided with fresh human IL-2 (10 U/ml) after 5 days and replenished with IL-2 containing medium every 3 days. Primary cultures are restimulated with the same peptide (50 μg/ml) on day 16. 5×10^5 irradiated (4,000 rad) autologous PBMC are added in a volume of about 50 μl complete medium as antigen-presenting cells (APC). […]

In the case of FLTPKKLQCV [PSA-1, ID No. 1], the “T cell lines established from normal donors” value is reported as 5/6.
